The results in this text go back to publication PMC9697519, “New Theonellapeptolides from Indonesian Marine Sponge Theonella swinhoei as Anti-Austerity Agents” (Marine Drugs, 2022).

Where a SMILES comes first, the peptide text is derived from it. Bridges are numbered along the chain shown (N, C = ends). [ ]: non-standard residue; d: D form. The star is where a group is joined. dNMeaIle = CC[C@H](C)[C@@H](NC)C(=O)O; d(aIle) = CC[C@H](C)[C@@H](N)C(=O)O; NMeI = CC[C@H](C)[C@H](NC)C(=O)O; dNMeL = CN[C@H](CC(C)C)C(=O)O; NMeV = CN[C@H](C(=O)O)C(C)C; Methoxyacetyl = COCC(=O)*; βAla = NCCC(=O)O Where only a bound is given, the exact number is not on record here.

Assay [1] concerns MIA PaCa-2 cells. In words: Morphological analysis, EB/AO double-staining. The assay is classed as cell-based, human. The following applies: 5 and 10 μM, NDM, 24 h, 24-well plate. The procedure: Thus, more detailed studies were performed on the major compound theonellapeptolide IId (4). Its effect on morphology status of MIA PaCa-2 cells under starvation condition was studied using a double-staining assay with EB (ethidium bromide) and AO (acridine orange). The membranes of dead or dying cells are penetrated by EB and staining in red while living cells are stained by AO, a cell-membrane-permeable dye emitting bright green fluorescence. Both AO and EB stains are known as DNA-intercalating agents. During cell death, EB and AO enter into the cell after the integrity of the cell membrane is disrupted, which facilitates the emission of orange fluorescence. […] In Figure 6A, treatment with 4 led to a dose-dependent increase in EB-stained cells emitting red fluorescence and showing drastic alteration of cell morphology. […] Real-time anti-austerity potential tracking of 4 showing morphological changes in MIA PaCa-2 cells under NDM was monitored using a Nikon sCMOS camera oxford instrument, Hamamatsu Photonics/Ti-E, for 24 h. […]
Figure 6 (A) Morphological changes of MIA PaCa-2 cells induced by 4 in a nutrient-deprived medium (NDM). […] The cells were stained with ethidium bromide (EB) and acridine orange (AO), and photographed in the fluorescence (red and green) under phase contrast modes using a Nikon sCMOS camera oxford instrument, Hamamatsu Photonics/Ti-E. (B) Structure of bioactive compound 4. […]

The test system of assay [2] is MIA PaCa-2 cells. The experiment in a line: Colony formation assay. In kind it is cell-based, human. The following applies: then fresh DMEM 10 days, 500 cells/well, three replicates. The procedure: Figure 6 (A) Morphological changes of MIA PaCa-2 cells induced by 4 in a nutrient-deprived medium (NDM). MIA PaCa-2 tumor cells were treated with 4 at the indicated concentrations in NDM in a 24-well plate and incubated for 24 h. The cells were stained with ethidium bromide (EB) and acridine orange (AO), and photographed in the fluorescence (red and green) under phase contrast modes using a Nikon sCMOS camera oxford instrument, Hamamatsu Photonics/Ti-E. (B) Structure of bioactive compound 4. (C) Effect of 4 on colony formation by MIA PaCa-2 cells in DMEM. (a) Graph showing the average values of the area occupied by MIA PaCa-2 cell colonies (three replicates). **** p < 0.0001 compared to the untreated control group. (b) Representative wells showing colonies of MIA PaCa-2 cells.
Pancreatic cancer cells have a great ability to migrate to surrounding tissues, growing and forming new colonies after metastasis in distant organs with sufficient nutrition. These processes are responsible for the majority of deaths from pancreatic cancer. The phenomenon is called “colonization”, and occurs during cancer metastasis. Migrating pancreatic cancer cells are likely to form small colonies (micrometastases), which then become large tumors. The discovery of potential inhibitors of the colony-forming ability of pancreatic cancer represents a promising approach to prevent pancreatic tumor metastasis. […] Therefore, theonellapeptolides isolated from marine origin were studied for their ability to inhibit MIA PaCa-2 colony formation. MIA PaCa-2 cells (500 cells/well) were placed in a 24-well plate and treated with 4 at 12.5, 25, and 50 μM (non-cytotoxic concentrations) in DMEM for 24 h.
Subsequently, the medium was replaced with fresh DMEM, and the cells were allowed to grow as colonies for 10 days in a humified CO2 incubator at 37 °C. […]
Colony Formation inhibitory effect of 4 at different concentrations against MIA PaCa-2 cells was determined as described previously.

Assay [3] concerns Bacillus cereus NBRC 15305. To be noted: NBRC 15305, 22 h. How it is done: (§1) Previously, three theonellapeptolide members capped with a unique acyl group at their N-termini such as methylsulfinylacetyl, methylsulfanylacetyl, and acetyl were isolated by Tsuda et al. from Okinawan marine sponge Theonella sp.. Furthermore, the antibacterial activity of these variants was evaluated against four bacterial and six fungal strains. […] To the best of our knowledge, there is no report on the antibacterial activity of theonellapeptolides with methoxyacetyl group. This encouraged us to investigate the antibacterial activity of 1–6 against the Gram-negative bacterium Escherichia coli JW5503 and the Gram-positive bacteria Bacillus cereus NBRC 15305 and Kocuria rhizophila NBRC 12708.
(§2) After incubation for 22 h (30 °C), the obtained optical density was recorded using Tecan infinite® M200 plate reader at 600 nm to determine percent growth inhibition.

The subject of assay [4] is Kocuria rhizophila NBRC 12708. The following applies: NBRC 12708, 22 h. The procedure:
as §1, §2

In another assay the test system is Escherichia coli JW5503. To be noted: JW5503, 22 h. The procedure: as §1, §2

In the case of `CC[C@H](C)[C@H]1C(=O)NCCC(=O)N[C@H]([C@@H](C)CC)C(=O)N(C)[C@@H](C(C)C)C(=O)N[C@@H](C)C(=O)NCCC(=O)N[C@H](CC(C)C)C(=O)N(C)[C@H]([C@@H](C)CC)C(=O)O[C@H](C)[C@H](NC(=O)[C@@H](CC(C)C)N(C)C(=O)[C@@H](NC(=O)COC)C(C)C)C(=O)NCCC(=O)N[C@H](CC(C)C)C(=O)N1C` [Compound 4, theonellapeptolide IId] (Methoxyacetyl-V[dNMeL]T[βAla][dL][NMeI][βAla][d(aIle)][NMeV]A[βAla][dL][dNMeaIle]; ester 3-C), the “EB/AO staining of cells” value with MIA PaCa-2 cells [1] is “exclusive red EB”. Besides, in the assay with MIA PaCa-2 cells [2] (12.5 μM in DMEM for 24 h), the “total well area occupied by colonies” value was 100%. The colony formation entry with MIA PaCa-2 cells [2] (25 μM in DMEM for 24 h) and with MIA PaCa-2 cells [2] (50 μM in DMEM for 24 h) was “total inhibition of colony formation” each time. In addition, the “MIC, BC” value in assay [3] is > 66 µM. Further, the “MIC, KR” value in assay [4] is listed as > 66 µM. Besides, in the assay with Escherichia coli JW5503, the “MIC, EC” value is on record as > 66 µM.
